Measured values as given in patent US7119229B2 (priority 2001, dated 2006).

Columns and labels:
TA1537 = experiment: Reverse mutation assay (Ames test), TA1537; conditions: Positive control group, TA1537, 50 μg/Plate
Experimental: (§1) This assay is carried out to test mutagenicity of chemical substances using histidine auxotrophic strains that are one of Salmonella Typhimurium mutants. […] When various mutagens are added to the culture medium, only revertants generated by reverse mutation survive.
(§2) Ames test was carried out using […]. […] After incubation, the number of revertant colonies was counted. 3 plates were prepared for each test and the average was calculated.

TA1535 = conditions: Positive control group, TA1535, 0.5 μg/Plate
Experimental: as §1, §2

TA100 = conditions: Positive control group, TA100, 0.5 μg/Plate
Experimental: as §1, §2

SMILES	Colony/Plate S-9 Mixture (+) (TA1537; S-9 Mixture (+)) [Colony/Plate]	Colony/Plate S-9 Mixture (−) (TA1537; S-9 Mixture (−)) [Colony/Plate]	Colony/Plate S-9 Mixture (+) (TA1535; S-9 Mixture (+)) [Colony/Plate]	Colony/Plate S-9 Mixture (−) (TA1535; S-9 Mixture (−)) [Colony/Plate]	Colony/Plate S-9 Mixture (+) (TA100; S-9 Mixture (+)) [Colony/Plate]	Colony/Plate S-9 Mixture (−) (TA100; S-9 Mixture (−)) [Colony/Plate]
Nc1c2ccccc2nc2ccccc12 [Compound 9-AA, 9-aminoacridine]	588	175				
[N-]=[N+]=[N-] [Sodium azide, sodium azide]			444	279	616	453
